Drawing on PubChem BioAssay (NCI), this text covers TGI and GI50 for 15 molecules.

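96-well plates; 48 h exposure; 5 concentrations. Endpoints by linear interpolation between flanking doses. Not reached: highest tested concentration assigned. GI50: concentration for 50% inhibition of growth. The concentration for full growth arrest is given as TGI.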

Among the test systems are 786-0 renal; EKVX NSCLC; DMS 114 small cell lung; M19-MEL melanoma; DMS 273 small cell lung; DLD-1 colon; HOP-18 NSCLC; BT-549 breast; HS 578T breast; T-47D breast.
What all share (assay): growth of human tumour cells (NCI), 48 h

Turning to `O=c1[nH]c(=O)n(C2CC(O)C(CO)O2)cc1COCC(F)(F)F` (configuration not stated), the TGI in the assay with 786-0 renal, in the assay with EKVX NSCLC, in the assay with DMS 114 small cell lung, in the assay with M19-MEL melanoma, with DMS 273 small cell lung and in the assay with DLD-1 colon was over 100 µM throughout.

For `C=Cc1c(C)c2cc3[nH]c(cc4nc(cc5nc(cc1[nH]2)C(C)=C5CCC(=O)N(CC)CC)C(CCC(=O)N(CC)CC)=C4C)c(C)c3C=C`, the TGI with 786-0 renal, in the assay with EKVX NSCLC, with M19-MEL melanoma and with DLD-1 colon was over 100 µM throughout.

As for `CC(C)=C1CCC(CN2CCOCC2)C1=O` (configuration not stated), the TGI was 11.2 µM in the assay on 786-0 renal; 34.5 µM in the assay on EKVX NSCLC; 23.8 µM in the assay on HOP-18 NSCLC; 31.8 µM in the assay on BT-549 breast; over 100 µM with HS 578T breast; 25 µM with DMS 114 small cell lung. In addition, the TGI in the assay with M19-MEL melanoma was over 58.9 µM; with DLD-1 colon, 10.8 µM.

For the molecule `CC1(C)C(=O)C(=Cc2ccco2)C1=O`, the TGI with 786-0 renal, in the assay with EKVX NSCLC, in the assay on HOP-18 NSCLC, with DMS 114 small cell lung, in the assay with M19-MEL melanoma and with DLD-1 colon was over 100 µM throughout.

With `COc1ccc2nc3cccc([N+](=O)[O-])c3c(NCCNCCN(C)C)c2c1`, the GI50 in the assay on 786-0 renal is 0.0429 µM; with EKVX NSCLC, 0.261 µM; with T-47D breast, 0.168 µM; with BT-549 breast it was 0.418 µM; in the assay on HS 578T breast it was 0.175 µM. Moreover, the TGI with 786-0 renal was 0.164 µM; in the assay on EKVX NSCLC, 1.43 µM; in the assay on T-47D breast, 7.93 µM; in the assay on BT-549 breast, 1.06 µM; with HS 578T breast it was 0.558 µM.

With `C[C@H](NC(=O)c1c(C(F)F)nn(C)c1Oc1cccc(C(F)(F)F)c1)c1ccc(C(=O)O)cc1`, the GI50 in the assay with 786-0 renal, with EKVX NSCLC, in the assay with T-47D breast, with BT-549 breast and with HS 578T breast was over 100 µM in each case. Further, the TGI with 786-0 renal, in the assay with EKVX NSCLC, in the assay on T-47D breast, in the assay with BT-549 breast and in the assay with HS 578T breast was over 100 µM each time.

Consider `CCOC(=O)C#Cc1c(C(=O)OCC)nnn1[C@@H]1O[C@H](CO)[C@H]2OC3(CCCCC3)O[C@H]21`, for which the GI50 in the assay with 786-0 renal is 2.88 µM; with EKVX NSCLC, 15.6 µM; with T-47D breast it was 2.21 µM; with BT-549 breast it was 8.66 µM; in the assay on HS 578T breast it was 19.6 µM. Further, the TGI stood at 8.62 µM in the assay on 786-0 renal; 30.1 µM in the assay on EKVX NSCLC; 5.47 µM with T-47D breast; 20.8 µM with BT-549 breast; 58.3 µM in the assay on HS 578T breast.

On to `COC(=O)CC(=O)NCC1=CCC(=O)CC1`, for which the TGI with 786-0 renal, with EKVX NSCLC, in the assay with DMS 114 small cell lung, with M19-MEL melanoma, in the assay with DMS 273 small cell lung and with DLD-1 colon was over 100 µM each time.

On to `CCN(CC)c1ccc(/C=N/NC(=O)CSc2nc3ccccc3c(=O)n2Cc2ccc(S(N)(=O)=O)cc2)c(O)c1`, for which the GI50 in the assay on 786-0 renal was 1.84 µM; with EKVX NSCLC, 0.65 µM; in the assay on T-47D breast it was 0.925 µM; in the assay on BT-549 breast it was 2.68 µM; with HS 578T breast it was 2.11 µM. Moreover, the TGI in the assay on 786-0 renal, in the assay on EKVX NSCLC, in the assay on T-47D breast, in the assay with BT-549 breast and with HS 578T breast was over 100 µM each time.

Consider `O=c1c2cccnc2ncn1CCCN1CCCC1`, for which the TGI in the assay with 786-0 renal, with EKVX NSCLC, in the assay on DMS 114 small cell lung, with M19-MEL melanoma, with DMS 273 small cell lung and with DLD-1 colon was over 100 µM in each case.

Take `Cc1ccc(O)c(NC2=C(Cl)C(=O)N(Cc3ccccc3)C2=O)c1`: the GI50 with 786-0 renal was 29.6 µM; in the assay on EKVX NSCLC, 35.9 µM; with T-47D breast it was 39 µM; in the assay on BT-549 breast, 18.1 µM; in the assay on HS 578T breast, 21.2 µM. Moreover, the TGI with 786-0 renal was 86.1 µM; with EKVX NSCLC, over 100 µM; in the assay with T-47D breast it was over 100 µM; in the assay on BT-549 breast, 67.3 µM; in the assay with HS 578T breast, 65.3 µM.

As to `NCCOc1ncccc1/C=C1\c2ccccc2-c2ccc([N+](=O)[O-])cc21`, the GI50 with 786-0 renal is 0.0268 µM; in the assay on EKVX NSCLC, 0.116 µM; in the assay with T-47D breast it was 0.0283 µM; in the assay on BT-549 breast, 0.181 µM; in the assay on HS 578T breast, 0.255 µM. In addition, the TGI in the assay with 786-0 renal amounted to 0.139 µM; in the assay on EKVX NSCLC, 0.474 µM; in the assay with T-47D breast it was 0.305 µM; in the assay with BT-549 breast it was 0.994 µM; with HS 578T breast, 1.26 µM.

`NC(CSC(c1ccccc1)(c1ccccc1)c1ccc(F)cc1)C(=O)O` (configuration not stated): the GI50 with 786-0 renal was 2.92 µM; in the assay on EKVX NSCLC, 0.525 µM; in the assay with T-47D breast it was 0.365 µM; in the assay on BT-549 breast, 1.64 µM; in the assay with HS 578T breast it was 0.239 µM. Besides, the TGI with 786-0 renal was over 78.9 µM; in the assay with EKVX NSCLC, over 74.2 µM; with T-47D breast, 25.5 µM; in the assay with BT-549 breast it was 86.8 µM; in the assay with HS 578T breast it was 0.841 µM.

Regarding `O=C(CN(/C=C/C(=O)C(F)(F)F)c1ccccc1)c1ccc(Cl)cc1`, the GI50 is 15.3 µM with 786-0 renal; 40 µM with EKVX NSCLC; 30 µM in the assay on T-47D breast; 31.2 µM with BT-549 breast; 28.2 µM in the assay on HS 578T breast. In addition, the TGI in the assay with 786-0 renal was 29.1 µM; with EKVX NSCLC it was over 100 µM; in the assay with T-47D breast, over 100 µM; in the assay with BT-549 breast, 91.9 µM; in the assay on HS 578T breast, 64.6 µM.

As to `NC(=S)N/N=C1/CN(c2ccc(Cl)c(Cl)c2)CC(=O)C1c1nc2ccccc2s1` (configuration not stated), the TGI in the assay on 786-0 renal, in the assay with EKVX NSCLC, in the assay on DMS 114 small cell lung, with M19-MEL melanoma, in the assay with DMS 273 small cell lung and with DLD-1 colon was over 100 µM in each case.
